The values that follow come from patent publication US8632824B2, “Process of obtaining thylakoids from photosynthetic organisms; plant fractions obtained from the process; pure thylakoids; and methods of use of thylakoids as ROS scavengers, photo-protectors, biosensors, biofilters and bioreactors” (Purgenesis Technologies, Inc., priority 2000, dated 2014).

The test system of assay [1] is IMR-32 cells. The assay is described as follows: Protection of IMR-32 cells against TBHP oxidative stress (Hoechst DNA survival assay). Format: cell-based, Human. Particulars: for apoptosis produced by TBHP: 1000 cells per well, 1 hour. An excerpt: Human neuroblastoma cell line (IMR-32), which is known to respond to oxidative stress by apoptosis (Kim et al, 1999), was used as an in vitro cell model. IMR32 cells are particularly sensitive to ROS and other toxicants because their p53 gene product is sequestered in the cytoplasm.
Tert-butyl hydroperoxide (TBHP) was used as an oxidative stress-inducing agent. […] This will allow comparisons if studies relative to more generalized oxidative stress conditions (like the ones found in many neurodegenerative diseases) have to be performed on different cells phenotypes.
Experiments were done using 1000 IMR-32 cells per well, for I hour of incubation. TBHP 50, 75 and 100 μM produced 78%, 87% and 87% apoptosis. TBHP 50 μM was selected to induce apoptosis in the other experiments.
Different dilutions were used on IMR-32 cells along with TBHP. A mother solution 1:10 was constituted, starting from the lyophilized thylakoid fraction, in propylene glycol. Unless otherwise specified, the mentioned dilutions are dilutions of this mother solution. […] The latter dilution was adopted for further experimentation.
IMR-32 Cells were grown in MEM supplemented with 10% FBS at 37° C. in a humidified atmosphere of 95% air and 5% CO2. The cells were seeded at a density of 1×10^4 cells/T25 Falcon tissue culture flasks and subcultured twice weekly. 48 h old cultures were used in all the experiments.
1000 or 3000 cells/well/100 uL were seeded in 96 well (Linbro flat bottom) plates in all the wells except well No. 12 of all the rows. After 24 h the cells were washed 2 times with 250 ul of PBS (pH 7.2) and 32 wells each were treated respectively with 100 and 200 uM solutions of TBHP (70% aqueous solution from Sigma Chemical Company) for 1 h. After 1 h the cells were gently washed 2 times with PBS before adding fresh growth medium. After 24 h the cell survival was assayed by a sensitive fluorimetric assay based on DNA binding fluorescent dye Hoechst by the following procedure. The test measures the total DNA of the population, a measurement which closely correlates with cell number. The medium was aspirated by gentle suction. Cells were rinsed with 250 ul PBS. PBS was aspirated with gentle suction. The rinse step was repeated. 100 uL lysis buffer (0.02% SDS in 1×SSC) was added in every well except the ones for DNA standard and Blank in row 12. The plate was incubated at 37° C. for 1 h with occasional swirling. 100 uL of 40 ug/mL of DNA was added to the DNA wells and 100 uL of 1×SSC buffer was added to the wells that were treated as Blank. 100 uL of 40 ug/ml of Hoechst 33258 in 1×SSC buffer was added to every well, and the plate was covered with Aluminum foil to protect it from light. The plate was agitated gently for 5 minutes and fluorescence was read at excitation wavelength 355 nm and emission wavelength 460 nm.
CT untreated=100%: survival after TBHP: 42%, dead cells: 100−42=58%; population size after PC: 88% difference from CT: 100−88=12% Expected population size after TBHP+PC: 100−58−12=30%. Recovered survival: 60% Survival gain in %: 60−30=30 Protection exerted: 30:60×100=50%
FRTS/1 was used as pre-treatment, co-treatment and post-treatment with the oxidative insult.
The <<Cell damages TBHP/CT>> represents the damages caused by the oxidant calculated as a percentage from the survival of untreated controls. […] The <<Expected survival>> is 100-total expected decrease. […] The <<protection exerted by PC>> is calculated as reported above.

The subject of assay [2] is IMR-32 cells. Description: Estimation of apoptosis in IMR-32 cells by LDH assay. Particulars: lysed cells = 100%.
Protocol: For this experiment IMR-32 cells were grown in MEM medium without I-Glutamine, Phenolphtaleine and sodium pyruvate 3000 IMR-32 cell/well seeded in 96 well plates. […] After 1 hour the cells were washed with PBS two times and PBS was replaced with the growth medium. […] Two rows were left untreated as Control. The LDH activity was measured by Lactate Dehydrogenase Assay Kit provided by Sigma Diagnostics. The calorimetric assay measures the residual pyruvate (substrate of the enzymatic reaction). The basal activity present in the medium alone (in the absence of Cells) was considered 0% and was systematically subtracted from each experimental value. Control untreated cells in two rows were lysed with Triton X-100 (0.02%) and were treated as samples with 100% LDH release.
The assay used in the present study measures the residual level of enzyme substrate (pyruvate) using a calorimetric reaction. The more the substrate in the medium, the less enzyme released. Medium cells was taken as 0% enzyme activity released, and lysed cells in the medium as 100% released.
Assay [3] is described as follows: Oxidation of PLPC micelles by peroxyl radicals from AAPH (absorbance at 234 nm). Format: biochemical. Particulars: FIG. 10. From the text:
The peroxidation of unsaturated lipid moieties (reactions 1-3) causes changes in their structure which eventually changes the physical properties of biological membranes. During the lipid peroxidation a conjugated diene group is formed (see LOOH in reaction 3) which has an UV/Vis absorption maximum at λmax=234 nm (ε=29,500 M^−1cm^−1) and this allows a quantification of the oxidation product formed. To obtain quantitative data the lipid peroxidation has to be initiated in a controlled manner (reaction 1). Often azo initiators, which produce a well-defined flux of ROO. in aqueous, aerated solution, are employed to study lipid oxidation in in vitro experiments. […]
Depending on possible reaction pathways of the antioxidant used the concentration time profiles of the detected LOOH display certain characteristics. By using an azo initiator as peroxyl radical source the amount of ROO. generated can be calculated and it is possible to determine the amount of lipids oxidized from the 234 nm absorption of the conjugated diene moiety. Also the amount of ROO. trapped during the lag phase can be determined.
From the duration of a possible lag phase during lipid peroxidation experiments (FIG. 9) the amount of “trapped” radicals can be calculated. […]
The reactions were monitored on a spectrophotometer at 37° C. for 10 h. […]

`CC(C)(C)OO` [TBHP, Tert-butyl hydroperoxide]: the “apoptosis produced by TBHP” value with IMR-32 cells [1] (TBHP 50 μM) came to 78%; with IMR-32 cells [1] (TBHP 75 μM), 87%; with IMR-32 cells [1] (TBHP 100 μM) it was 87%. Further, the “Cell damages TBHP/CT” value came to 39% in the assay with IMR-32 cells [1] (co-treatment experiment, TBHP 25 uM alone); 67% in the assay with IMR-32 cells [1] (co-treatment experiment, TBHP 50 uM alone); 38% with IMR-32 cells [1] (post-treatment experiment, TBHP 25 uM alone); 66% in the assay with IMR-32 cells [1] (post-treatment experiment, TBHP 50 uM alone); 58% in the assay with IMR-32 cells [1] (pre-treatment experiment, TBHP 25 uM alone); 70% with IMR-32 cells [1] (pre-treatment experiment, TBHP 50 uM alone). Also, the “survival after TBHP” value in the assay with IMR-32 cells [1] (worked calculation example, CT untreated=100%) was 42%. Besides, the “LDH release/TBHP” value is listed as 64% in the assay with IMR-32 cells [2] (TBHP 25 uM alone) and 92% in the assay with IMR-32 cells [2] (TBHP 50 uM alone).
Regarding `CC1=C(/C=C/C(C)=C/C=C/C(C)=C/C=C/C=C(C)/C=C/C=C(C)/C=C/C2=C(C)CCCC2(C)C)C(C)(C)CCC1` [β-carotene], in assay [3], the “oxidation kinetics of lipids compared to Trolox” value is listed as “an antioxidant but with no lag phase”.
